From patent US20230057861A1, “USE OF CORYDALIS SAXICOLA BUNTING AND FORMULATION THEREOF IN PREPARATION OF DRUG FOR TREATING NON-ALCOHOLIC FATTY LIVER DISEASES” (NANJING ZHONGSHAN PHARMACEUTICAL CO., LTD., priority 2020, published 2023)

Test system: HFD-fed mice
Assay: Liver histopathology, HE staining
Type: in vivo, C57BL/6J mice
Conditions: metformin group (200 mg/kg), gavage 5 weeks, FIG. 5
Method: 1.4 Experimental method: After adaptive feeding for one week, 35 four-week-old male C57BL/6 mice were randomized into 2 initial groups, fed with a normal chow or a high-fat (60% fat) high-sugar (20% fructose) chow. […] During modeling, the mice were given ad libitum access to food and water at room temperature of 23-25° C. in an animal laboratory. The proper temperature and the 12-hour day-night cycle were maintained. From week 11, the mice in each group were dosed by gavage for 5 weeks, and its weight was measured once a week. 4.1.1 Experimental method: Fresh liver tissue was collected and fixed in 4% neutral formalin buffer for 24 h, and then dehydrated. The tissue blocks were trimmed, processed, and embedded in paraffin. The tissue in glass slides were cut to the thickness of 5 μm and treated with HE staining.

CN(C)C(=N)N=C(N)N [metformin]
hepatocyte swelling, steatosis, sparse cytoplasm (HE staining): significantly relieved
